Source: ChEMBL document CHEMBL3638466 (2015)

Target: Maternal embryonic leucine zipper kinase (Homo sapiens, UniProt Q14680)
Assay: Kinase Assay: MELK activity was determined in the presence or absence of compounds using fluorescein isothiocyanate-labeled (FITC-labeled) histone H3 peptide as a substrate. The extent of FITC-labeled histone H3 peptide phosphorylation was measured by immobilized metal ion affinity-based fluorescence polarization (IMAP) technology (Sportsman J R, et al., Assay Drug Dev. Technol. 2: 205-14, 2004) …
Type: single protein

Maternal embryonic leucine zipper kinase, sequence (Q14680 whole entry): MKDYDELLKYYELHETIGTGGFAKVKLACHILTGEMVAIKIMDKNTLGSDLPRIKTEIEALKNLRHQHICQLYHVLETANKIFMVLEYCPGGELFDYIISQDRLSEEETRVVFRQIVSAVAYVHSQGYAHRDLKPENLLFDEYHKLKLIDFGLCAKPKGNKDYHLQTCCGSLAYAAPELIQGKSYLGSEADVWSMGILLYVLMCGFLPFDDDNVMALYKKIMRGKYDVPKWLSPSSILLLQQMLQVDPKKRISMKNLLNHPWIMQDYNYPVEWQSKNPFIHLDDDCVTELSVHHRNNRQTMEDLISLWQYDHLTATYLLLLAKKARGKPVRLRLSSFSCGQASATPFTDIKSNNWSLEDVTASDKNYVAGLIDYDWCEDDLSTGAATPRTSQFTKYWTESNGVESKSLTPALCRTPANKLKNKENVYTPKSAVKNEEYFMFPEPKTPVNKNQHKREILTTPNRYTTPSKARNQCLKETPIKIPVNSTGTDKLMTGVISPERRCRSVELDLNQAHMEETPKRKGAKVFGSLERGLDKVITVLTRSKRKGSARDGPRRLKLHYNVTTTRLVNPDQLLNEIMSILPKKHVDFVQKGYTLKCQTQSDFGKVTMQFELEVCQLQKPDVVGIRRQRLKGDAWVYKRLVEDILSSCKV

Compound | IC50 [nM]
CC(=O)c1cnc2ccc(-c3cc(F)c(O)c(Cl)c3)nc2c1N[C@H]1CC[C@H](NC(=O)[C@@H]2CCCN2)CC1 | 2.4
CC(=O)c1cnc2ccc(-c3cc(Cl)c(O)c(Cl)c3)nc2c1NC[C@H]1CC[C@H](N(C)C)CC1 | 0.6
